Consider 32 molecules from US8410097B2 (priority 2005, dated 2013).

Where two headings read alike, the source gives them in different places.

Assay [1] concerns the target CB2 cannabinoid receptor (Mus musculus, UniProt P47936). Put plainly: biochemical. Format: binding. The conditions noted are these: mouse spleen membranes. The method, then: Some of the inventive analogs were tested for CB2 receptor binding affinity and for CB1 receptor affinity (to determine selectivity). […] The lower the Ki value the higher the binding affinity.
(§1) The treated membranes were subsequently used in the binding assay described below. Approximately 30 μg of membranes were incubated in silanized 96-well microtiter plate with TME containing 0.1% essentially fatty acid-free bovine serum albumin (BSA), 0.8 nM [^3H] […] Radioactivity was detected using MicroScint 20 scintillation cocktail added directly to the dried filterplates, and the filterplates were counted using a Packard Instruments Top-Count. […] Data collected from three independent experiments performed with duplicate determinations was normalized between 100% and 0% specific binding for [^3H] […] The normalized data was analyzed using a 4-parameter nonlinear logistic equation to yield IC50 values.
Silanized centrifuge tubes were used throughout to minimize receptor loss due to adsorption. The CB2 binding assay was conducted in the same manner as for the CB1 binding assay. The binding affinities (Ki) were also expressed in nanomoles (nM).

In assay [2] the target is T1, CB1 cannabinoid receptor (Rattus norvegicus, UniProt P20272).
T1 construct: membranes were prepared from rat forebrain membranes; from tissue; host or cells: rat forebrain membranes
T1 sequence (P20272 whole entry): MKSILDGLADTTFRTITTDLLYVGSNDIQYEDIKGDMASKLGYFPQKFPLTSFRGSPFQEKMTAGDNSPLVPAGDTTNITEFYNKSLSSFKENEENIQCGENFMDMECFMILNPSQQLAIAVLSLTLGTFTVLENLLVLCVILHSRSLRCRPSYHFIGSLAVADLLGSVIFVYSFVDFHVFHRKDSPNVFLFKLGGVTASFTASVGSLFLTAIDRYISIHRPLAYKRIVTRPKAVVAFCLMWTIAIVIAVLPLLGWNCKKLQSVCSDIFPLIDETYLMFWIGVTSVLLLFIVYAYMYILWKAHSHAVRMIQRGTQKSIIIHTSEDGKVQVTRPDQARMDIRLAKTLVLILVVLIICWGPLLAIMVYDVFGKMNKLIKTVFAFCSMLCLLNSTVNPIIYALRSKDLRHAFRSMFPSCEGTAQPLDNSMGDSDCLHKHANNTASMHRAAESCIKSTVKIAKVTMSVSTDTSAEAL
Put plainly: biochemical. The assay is classed as binding. The conditions noted are these: for Ki: rat forebrain membranes; for Selectivity CB1: CB1 over CB2 binding selectivity (ratio of Ki). Here is the method: Some of the inventive analogs were tested for CB2 receptor binding affinity and for CB1 receptor affinity (to determine selectivity). […] The lower the Ki value the higher the binding affinity. […]
Membranes, previously frozen at −80° C., were thawed on ice. To the stirred suspension was added three volumes of TME (25 mM Tris-HCl buffer, 5 mM MgCl2 and 1 mM EDTA) at a pH 7.4. The suspension was incubated at 4° C. for 30 min. At the end of the incubation, the membranes were pelleted and washed three times with TME.
as §1

Setting [3] is: Table 8, read-out: Receptor Affinities Ki (nM) CB2.
Where [4] appears, read: Receptor Affinities Ki (nM) CB1, Table 8.
Setting [5] is: Table 9, read-out: Receptor Affinities Ki (nM) CB2.
Setting [6] is: Receptor Affinities Ki (nM) CB1, Table 9.
[7] abbreviates: Table 10, read-out: Receptor Affinities Ki (nM) CB2.
The mark [8] stands for this setting: Receptor Affinities Ki (nM) CB1, Table 10.

Chain of CB2 cannabinoid receptor (P47936 whole entry): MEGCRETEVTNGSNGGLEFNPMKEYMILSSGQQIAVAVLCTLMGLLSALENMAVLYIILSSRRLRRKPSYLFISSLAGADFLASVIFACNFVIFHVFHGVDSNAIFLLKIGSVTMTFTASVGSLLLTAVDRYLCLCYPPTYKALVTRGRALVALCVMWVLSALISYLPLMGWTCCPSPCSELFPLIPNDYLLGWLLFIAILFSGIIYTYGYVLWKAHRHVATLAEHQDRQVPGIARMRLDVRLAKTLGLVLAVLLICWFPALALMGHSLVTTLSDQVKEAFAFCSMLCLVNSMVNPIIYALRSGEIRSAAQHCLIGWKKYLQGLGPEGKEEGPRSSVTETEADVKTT

For the molecule `O=C(NN1CCCCC1)c1nn(-c2ccc(Cl)cc2Cl)c(-c2ccc(C#CCCO)cc2)c1CO` [Compound 3-2], the values for the Ki in assay [1] (setting [3]) and in assay [2] (setting [4]) were 165 nM and 16 nM, respectively. In addition, the “Selectivity CB1” value in assay [2] (Table 8) amounted to 10.

As for `Cc1c(C(=O)NN2CCCCC2)nn(-c2ccc(Cl)cc2Cl)c1-c1ccc(C#CCN=[N+]=[N-])cc1` [Compound 3-3], the inhibitory constant (Ki) was determined as 750 nM in assay [1] (setting [3]) and 3 nM in assay [2] (setting [4]). Also, the “Selectivity CB1” value in assay [2] (Table 8) amounted to 250.

In the case of `O=C(NN1CCCCC1)c1nn(-c2ccc(Cl)cc2Cl)c(-c2ccc(C#CCO)cc2)c1CO` [Compound 3-4], the figures for the Ki in assay [1] (setting [3]) and in assay [2] (setting [4]) were 313 nM and 21 nM, respectively. Moreover, the “Selectivity CB1” value in assay [2] (Table 8) was 15.

Take `Cc1c(C(=O)NN2CCCCC2)nn(-c2ccc(Cl)cc2Cl)c1-c1ccc(C#CCCCO)cc1` [Compound 3-5]: the Ki in assay [1] (setting [3]) is 144 nM; in assay [2] (setting [4]), 2 nM. Besides, in assay [2] (Table 8), the “Selectivity CB1” value worked out at 72.

Regarding `Cc1c(C(=O)NN2CC3CCCC3C2)nn(-c2ccc(Cl)cc2Cl)c1-c1ccc(C#CCCO)cc1` (stereo not drawn) [Compound 3-6], the figures for the Ki in assay [1] (setting [3]) and in assay [2] (setting [4]) were 199 nM and 7 nM, respectively. Also, the “Selectivity CB1” value in assay [2] (Table 8) is 28.

As to `Cc1c(C(=O)NN2CCCCC2)nn(-c2ccc(Cl)cc2Cl)c1-c1ccc(C#CCCCCO)cc1` [Compound 3-7], the figures for the Ki in assay [1] (setting [3]) and in assay [2] (setting [4]) were 116 nM and 3 nM, respectively. In addition, in assay [2] (Table 8), the “Selectivity CB1” value was 39.

In the case of `Cc1c(C(=O)N(C)C2CCCCC2)nc(-c2ccc(Cl)cc2Cl)n1-c1ccc(C#CCCO)cc1` [Compound 3-8], the inhibitory constant (Ki) in assay [1] (Receptor Affinities Ki (nM) CB2, Table 8) turned out to be 440 nM; in assay [2] (setting [4]), 12 nM. For the same molecule, the “Selectivity CB1” value in assay [2] (Table 8) is recorded as 36.

Turning to `Cc1c(C(=O)N(C)C2CCCCC2)nc(-c2ccc(Cl)cc2Cl)n1-c1ccc(C#CCO)cc1` [Compound 3-9], the Ki in assay [1] (setting [3]) was 257 nM; in assay [2] (setting [4]), 27 nM. Besides, the “Selectivity CB1” value in assay [2] (Table 8) was found to be 9.

On to `N#CCCC#Cc1ccc(-n2c(-c3ccc(Cl)cc3Cl)nc(C(=O)NN3CCCCC3)c2CO)cc1` [Compound 3-10], for which the results for the inhibition constant Ki in assay [1] (setting [3]) and in assay [2] (setting [4]) were 279 nM and 2 nM, respectively. The “Selectivity CB1” value in assay [2] (Table 8) is on record as 140.

Turning to `Cc1c(C(=O)N(C)C2CCCCC2)nc(-c2ccc(Cl)cc2Cl)n1-c1ccc(C#CCN=[N+]=[N-])cc1` [Compound 3-11], the values for the inhibitory constant (Ki) in assay [1] (setting [3]) and in assay [2] (setting [4]) were 82 nM and 1 nM, respectively. Further, the “Selectivity CB1” value in assay [2] (Table 8) is recorded as 82.

Take `Cc1c(C(=O)NN2CCCCC2)nn(-c2ccc(Cl)cc2Cl)c1-c1ccc(CCCO)cc1` [Compound 4-1, 1-(2,4-Dichloro-phenyl)-5-[4-(3-hydroxy-propyl)-phenyl]-4-methyl-1H-pyrazole-3-carboxylic acid piperidin-1-ylamide]: the Ki stood at 230 nM in assay [1] (setting [5]) and 26 nM in assay [2] (setting [6]). For the same molecule, the “Selectivity CB1” value in assay [2] (Table 9) worked out at 8.

As for `Cc1c(C(=O)NN2CCCCC2)nn(-c2ccc(Cl)cc2Cl)c1-c1ccc(CCCCO)cc1` [Compound 4-2], the Ki is 43 nM in assay [1] (setting [5]) and 2 nM in assay [2] (setting [6]). Further, the “Selectivity CB1” value in assay [2] (Table 9) was 21.

Consider `O=C(NN1CCCCC1)c1nn(-c2ccc(Cl)cc2Cl)c(-c2ccc(CCCCO)cc2)c1CO` [Compound 4-3], for which the figures for the Ki in assay [1] (setting [5]) and in assay [2] (setting [6]) were 7540 nM and 31 nM, respectively. In assay [2] (Table 9), the “Selectivity CB1” value was found to be 243.

Turning to `Cc1c(C(=O)NN2CCCCC2)nn(-c2ccc(Cl)cc2Cl)c1-c1ccc(CCC#N)cc1` [Compound 4-4], the values for the inhibitory constant (Ki) in assay [1] (setting [5]) and in assay [2] (setting [6]) were 2290 nM and 13 nM, respectively. Further, the “Selectivity CB1” value in assay [2] (Table 9) worked out at 176.

In the case of `Cc1c(C(=O)NN2CCCCC2)nn(-c2ccc(Cl)cc2Cl)c1-c1ccc(CCCCN=[N+]=[N-])cc1` [Compound 4-5], the Ki in assay [1] (setting [5]) came to 177 nM; in assay [2] (setting [6]), 3 nM. Besides, the “Selectivity CB1” value in assay [2] (Table 9) stood at 59.

For the molecule `O=C(NN1CCCCC1)c1nn(-c2ccc(Cl)cc2Cl)c(-c2ccc(CCCO)cc2)c1CO` [Compound 4-6], the Ki in assay [1] (setting [5]) stood at 66 nM; in assay [2] (setting [6]), 21 nM. Besides, the “Selectivity CB1” value in assay [2] (Table 9) is recorded as 3.

Turning to `Cc1c(C(=O)N(C)C2CCCCC2)nc(-c2ccc(Cl)cc2Cl)n1-c1ccc(CCCO)cc1` [Compound 4-7], the figures for the inhibition constant (Ki) in assay [1] (setting [5]) and in assay [2] (setting [6]) were 290 nM and 100 nM, respectively. Further, the “Selectivity CB1” value in assay [2] (Table 9) worked out at 3.

Consider `Cc1c(C(=O)NN2CCCCC2)nn(-c2ccc(Cl)cc2Cl)c1-c1ccc(C#CCN(C)C)cc1` [Compound 5-1], for which the inhibitory constant (Ki) came to 76 nM in assay [1] (setting [7]) and 51 nM in assay [2] (setting [8]). For the same molecule, the “Selectivity CB1” value in assay [2] (Table 10) stood at 1.5.

Turning to `Cc1c(C(=O)NN2CCCCC2)nn(-c2ccc(Cl)cc2Cl)c1-c1ccc(C#CCNC(=O)OC(C)(C)C)cc1` [Compound 5-2], the Ki is 88 nM in assay [1] (setting [7]) and 68 nM in assay [2] (setting [8]). In addition, the “Selectivity CB1” value in assay [2] (Table 10) is on record as 1.3.

As for `Cc1c(C(=O)NN2CCCCC2)nn(-c2ccc(Cl)cc2Cl)c1-c1ccc(C#CCN(C)C)cc1.Cl` [Compound 5-3], the Ki in assay [1] (setting [7]) was 66 nM; in assay [2] (setting [8]) it was 30 nM. In assay [2] (Table 10), the “Selectivity CB1” value worked out at 2.2.

As for `Cc1c(C(=O)NN2CCCCC2)nn(-c2ccc(Cl)cc2Cl)c1-c1ccc(C#CCN)cc1` [Compound 5-4], the figures for the inhibition constant Ki in assay [1] (setting [7]) and in assay [2] (setting [8]) were 40 nM and 21 nM, respectively. Besides, the “Selectivity CB1” value in assay [2] (Table 10) stood at 2.

In the case of `Cc1c(C(=O)NN2CCCCC2)nn(-c2ccc(Cl)cc2Cl)c1-c1ccc(C#CCN)cc1.Cl` [Compound 5-5], the Ki in assay [1] (setting [7]) and in assay [2] (setting [8]) was 30 nM each time. The “Selectivity CB1” value in assay [2] (Table 10) stood at 1.

With `Cc1c(C(=O)NN2CCCCC2)nn(-c2ccc(Cl)cc2Cl)c1-c1ccc(C#CC2CC2)cc1` [Compound 5-6], the inhibition constant Ki in assay [1] (setting [7]) is 20 nM; in assay [2] (setting [8]), 12 nM. Besides, the “Selectivity CB1” value in assay [2] (Table 10) turned out to be 1.5.

On to `Cc1c(C(=O)NN2CCCCC2)nn(-c2ccc(Cl)cc2Cl)c1-c1ccc(C#CC2(O)CCCCC2)cc1` [Compound 5-7], for which the figures for the Ki in assay [1] (setting [7]) and in assay [2] (setting [8]) were 68 nM and 20 nM, respectively. In assay [2] (Table 10), the “Selectivity CB1” value came to 3.5.

`Cc1c(C(=O)NN2CCCCC2)nn(-c2ccc(Cl)cc2Cl)c1-c1ccc(C#CC2(O)CCCC2)cc1` [Compound 5-8]: the Ki in assay [1] (setting [7]) stood at 13 nM; in assay [2] (setting [8]), 9 nM. Besides, in assay [2] (Table 10), the “Selectivity CB1” value is reported as 1.5.

In the case of `Cc1c(C(=O)NN2CCCCC2)nn(-c2ccc(Cl)cc2Cl)c1-c1ccc(C#Cc2ccccn2)cc1` [Compound 5-9], the values for the Ki in assay [1] (setting [7]) and in assay [2] (setting [8]) were 59 nM and 50 nM, respectively. Further, the “Selectivity CB1” value in assay [2] (Table 10) worked out at 1.

With `Cc1c(C(=O)NN2CCCCC2)nn(-c2ccc(Cl)cc2Cl)c1-c1ccc(C#Cc2cccnc2)cc1` [Compound 5-10], the values for the Ki in assay [1] (setting [7]) and in assay [2] (setting [8]) were 54 nM and 15 nM, respectively. Besides, the “Selectivity CB1” value in assay [2] (Table 10) was 3.6.

In the case of `Cc1c(C(=O)NN2CCCCC2)nn(-c2ccc(Cl)cc2Cl)c1-c1ccc(C#CC(C)(C)C)cc1` [Compound 5-11], the inhibition constant Ki in assay [1] (setting [7]) and in assay [2] (setting [8]) was 25 nM throughout. The “Selectivity CB1” value in assay [2] (Table 10) worked out at 1.

Take `Cc1c(C(=O)NN2CCCCC2)nn(-c2ccc(Cl)cc2Cl)c1-c1ccc(C#Cc2ccncc2)cc1` [Compound 5-12]: the inhibition constant Ki in assay [1] (setting [7]) was 421 nM; in assay [2] (setting [8]) it was 8 nM. Moreover, the “Selectivity CB1” value in assay [2] (Table 10) was 52.

For `Cc1c(C(=O)NN2CCCCC2)nn(-c2ccc(Cl)cc2Cl)c1-c1ccc(C#CCCN)cc1` [Compound 5-13], the Ki came to 732 nM in assay [1] (setting [7]) and 20 nM in assay [2] (setting [8]). In addition, the “Selectivity CB1” value in assay [2] (Table 10) turned out to be 36.

As for `Cc1c(C(=O)NN2CCCCC2)nn(-c2ccc(Cl)cc2Cl)c1-c1ccc(C#CCCCN)cc1` [Compound 5-14], the inhibitory constant (Ki) in assay [1] (setting [7]) came out at 947 nM; in assay [2] (setting [8]), 46 nM. For the same molecule, in assay [2] (Table 10), the “Selectivity CB1” value is given as 20.

`Cc1c(C(=O)NN2CCCCC2)nn(-c2ccc(Cl)cc2Cl)c1-c1ccc(C#CCCCCN)cc1` [Compound 5-15]: the Ki in assay [1] (setting [7]) was found to be 1530 nM; in assay [2] (setting [8]) it was 87 nM. In addition, in assay [2] (Table 10), the “Selectivity CB1” value came out at 17.

Usually Ki stands for the equilibrium dissociation constant of an inhibitor or competing ligand from its target.
